# Data: the supplement of paper PMC4862054
# Experiments:
# Details in all cases: incubation time: 72 h
# [1] = tested on: MCF-10A; experiment: normalised response (% of control), CellTox Green; higher = less cell death (100 = DMSO, 0 = benzethonium chloride kill control)
# Method in brief: (§1)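 In 384-well plates holding compound at 5 concentrations in 10-fold steps over a 10,000-fold range specific to each compound, breast cancer cell lines were seeded as 20 µl suspension and incubated 72 h. CellTox Green fluorescence was measured at 485/520 nm, after which CellTiter-Glo luminescence was measured following 10 min at room temperature. Plate signals were normalised to 0.1 % DMSO (100) and a positive kill control (0), and each value is the normalised signal at a single concentration.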
# [2] = tested on: Hs578T; experiment: as above
# Method in brief: as §1
# [3] = tested on: DU-4475; experiment: as above
# Method in brief: as §1
# [4] = tested on: MDA-MB-231; experiment: as above
# Method in brief: as §1
# [5] = tested on: CAL-51; experiment: as above
# Method in brief: as §1
# [6] = tested on: CAL-148; experiment: as above
# Method in brief: as §1
# [7] = tested on: CAL-120; experiment: as above
# Method in brief: as §1
# [8] = tested on: MFM-223; experiment: as above
# Method in brief: as §1
# [9] = tested on: HCC1937; experiment: as above
# Method in brief: as §1
# [10] = tested on: MDA-MB-468; experiment: as above
# Method in brief: as §1
# [11] = tested on: MDA-MB-453; experiment: as above
# Method in brief: as §1
# [12] = tested on: MDA-MB-436; experiment: as above
# Method in brief: as §1
# [13] = tested on: HDQ-P1; experiment: as above
# Method in brief: as §1
# [14] = tested on: CAL-85-1; experiment: as above
# Method in brief: as §1
# [15] = tested on: HCC1599; experiment: as above
# Method in brief: as §1
# [16] = tested on: BT-549; experiment: as above
# Method in brief: as §1
# [17] = tested on: BT-474; experiment: as above
# Method in brief: as §1
# [18] = tested on: HCC1143; experiment: as above
# Method in brief: as §1
# [19] = tested on: MCF-10A; experiment: normalised response (% of control), CellTiter-Glo; higher = more viable cells (100 = DMSO, 0 = benzethonium chloride kill control)
# Protocol: (§2)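 DSRT, 72 h incubation, CellTox Green / CellTiter-Glo readout. Signal is normalised to DMSO and benzethonium chloride controls. Value is the normalised response at dose 3.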
# [20] = tested on: Hs578T; experiment: as above
# Protocol: as §2
# [21] = tested on: DU-4475; experiment: as above
# Protocol: as §2
# [22] = tested on: MDA-MB-231; experiment: as above
# Protocol: as §2
# [23] = tested on: CAL-51; experiment: as above
# Protocol: as §2
# [24] = tested on: CAL-148; experiment: as above
# Protocol: as §2
# [25] = tested on: CAL-120; experiment: as above
# Protocol: as §2
# [26] = tested on: MFM-223; experiment: as above
# Protocol: as §2
# [27] = tested on: HCC1937; experiment: as above
# Protocol: as §2
# [28] = tested on: SK-BR-3; experiment: as above
# Protocol: as §2
# [29] = tested on: MDA-MB-468; experiment: as above
# Protocol: as §2
# [30] = tested on: MDA-MB-453; experiment: as above
# Protocol: as §2
# [31] = tested on: MDA-MB-436; experiment: as above
# Protocol: as §2
# [32] = tested on: HDQ-P1; experiment: as above
# Protocol: as §2
# [33] = tested on: CAL-85-1; experiment: as above
# Protocol: as §2
# [34] = tested on: HCC1599; experiment: as above
# Protocol: as §2
# [35] = tested on: BT-549; experiment: as above
# Protocol: as §2
# [36] = tested on: BT-474; experiment: as above
# Protocol: as §2
# [37] = tested on: HCC1143; experiment: as above
# Protocol: as §2
SMILES,normalised response [1] [%],normalised response [2] [%],normalised response [3] [%],normalised response [4] [%],normalised response [5] [%],normalised response [6] [%],normalised response [7] [%],normalised response [8] [%],normalised response [9] [%],normalised response [10] [%],normalised response [11] [%],normalised response [12] [%],normalised response [13] [%],normalised response [14] [%],normalised response [15] [%],normalised response [16] [%],normalised response [17] [%],normalised response [18] [%],normalised response [19] [%],normalised response [20] [%],normalised response [21] [%],normalised response [22] [%],normalised response [23] [%],normalised response [24] [%],normalised response [25] [%],normalised response [26] [%],normalised response [27] [%],normalised response [28] [%],normalised response [29] [%],normalised response [30] [%],normalised response [31] [%],normalised response [32] [%],normalised response [33] [%],normalised response [34] [%],normalised response [35] [%],normalised response [36] [%],normalised response [37] [%]
Cc1c2oc3c(C)ccc(C(=O)N[C@@H]4C(=O)N[C@H](C(C)C)C(=O)N5CCC[C@H]5C(=O)N(C)CC(=O)N(C)[C@@H](C(C)C)C(=O)O[C@@H]4C)c3nc-2c(C(=O)N[C@@H]2C(=O)N[C@H](C(C)C)C(=O)N3CCC[C@H]3C(=O)N(C)CC(=O)N(C)[C@@H](C(C)C)C(=O)O[C@@H]2C)c(N)c1=O [Dactinomycin] (10 nM),109,104,74.7,43.8,-32.3,17.1,102,104,107,84,91.5,90.8,82.8,69.3,99.3,80.4,102,117,52.2,58.7,3.42,62.1,20.4,27.2,65,88.9,51,59.2,18.7,84.7,53.4,41.5,51.7,102,13.3,64.6,54.7
C[C@]1(c2nc3c(C(N)=O)cccc3[nH]2)CCCN1 [Veliparib] (100 nM),–,111,102,95.9,96.9,103,98.3,108,87.8,107,103,61.1,109,105,115,108,101,95.9,96.5,102,103,105,76.4,96.4,96.5,98.6,101,95.2,96.5,102,99,102,105,102,101,98.3,100
COc1cc(Nc2ncc3c(n2)-c2ccc(Cl)cc2C(c2c(F)cccc2OC)=NC3)ccc1C(=O)O [Alisertib] (100 nM),68.7,-59.3,89.9,69.8,27.8,90.1,92.8,97,85.9,18.6,93.9,68.9,101,77.7,92.3,96.1,91.7,75,81.2,74.2,67,84,69.1,102,78.1,76.3,82.8,67.9,33.2,62,67.6,87,63.7,80.3,73.2,77.2,71.2
Nc1ccn([C@@H]2O[C@H](CO)[C@@H](O)[C@@H]2O)c(=O)n1 [Cytarabine] (100 nM),102,106,112,115,88.1,75.5,109,102,–,103,108,81.4,101,103,111,113,104,99.4,110,96.7,90.4,99,85.8,74.7,101,95.3,98.9,80.1,94.6,141,95.1,96.7,96.5,88.6,94,97.3,98.8
CCN1CCN(c2ccc(Nc3cc(N(C)C(=O)Nc4c(Cl)c(OC)cc(OC)c4Cl)ncn3)cc2)CC1 [NVP-BGJ398] (10 nM),100,92,98.7,99.2,76,101,96.6,89.8,106,154,99.5,103,–,112,91.5,95,98.8,81.9,98.1,99.9,97.8,93.2,58.6,97.2,91.4,95.8,96.9,97.7,99.4,92.7,95.2,104,100,115,99.4,102,100
CS(=O)(=O)c1ccc(C(=O)Nc2ccc(Cl)c(-c3ccccn3)c2)c(Cl)c1 [Vismodegib] (100 nM),96.2,80,101,72.6,98.4,–,98.9,88.8,97.9,87,93.1,91.3,108,105,100,86.2,92.5,99.2,93,95.5,99.4,94.3,109,94.6,93.1,94.4,99,92.7,96.8,88.4,96,99,98.8,95.1,101,94.4,94.1
CN1CCC(COc2cnc(-c3cccc(Cn4nc(-c5cccc(C#N)c5)ccc4=O)c3)nc2)CC1 (10 nM),70,76.3,99.5,98.5,83.9,108,95.4,103,–,73.8,100,88.8,115,108,101,103,94.1,89.6,94.9,92.8,99,102,64.8,92.9,98.8,89.8,94.6,80.8,93.2,89.2,89,96.4,97.2,100,104,96.7,101
N#CC[C@H](C1CCCC1)n1cc(-c2ncnc3[nH]ccc23)cn1 [Ruxolitinib] (100 nM),86.5,60.9,96.2,–,99.5,78.4,103,98.4,91.7,52.5,99,83.7,94.4,97.7,95,108,97.1,96.9,84.2,94.4,95.8,97.9,113,87.1,96.3,90.5,102,88.4,96.6,85.7,93.8,100,95.1,94,103,96.6,98.2
